Target: T1, recombinant His-tag Y220C p53 DBD protein (Homo sapiens, UniProt P04637, Y220C)
T1 construct: recombinant His-tag Y220C p53 DBD protein (amino acids #˜94-312)
Assay: In vitro DNA binding activity assay (TR-FRET): binding of His-tag Y220C p53 DBD to biotin-labeled consensus DNA
Format: biochemical
Details: for Y220C SC150 (μM): SC150 = concentration to increase DNA binding by […], His-tag Y220C p53 DBD, biotin-labeled consensus DNA

| Y220C SC150 (μM) | SC150 (μM) (concentration to increase DNA binding by […], incubated at either 27° C. or 29° C. for 60 min) | SMILES |
| --- | --- | --- |
| * (* = 0 μM ≤ SC150 < 0.1 μM) | – | COCc1cc(C(=O)NCc2nc(-c3cc4c(N[C@@H]5CCN(C)C[C@@H]5F)cccc4n3CC(F)(F)F)no2)cs1 [Compound 464B, N-{[3-(4-{[(3S,4R)-3-fluoro-1-methylpiperidin-4-yl]amino}-1-(2,2,2-trifluoroethyl)-1H-indol-2-yl)-1,2,4-oxadiazol-5-yl]methyl}-5-(methoxymethyl)thiophene-3-carboxamide] |
| * (* = 0 μM ≤ SC150 < 0.1 μM) | – | CN1CC[C@@H](Nc2cccc3c2cc(-c2noc(CNC(=O)c4ccn(C(C)(C)C5CC5)c4)n2)n3CC(F)(F)F)[C@@H](F)C1 [Compound 423B, 1-(2-cyclopropylpropan-2-yl)-N-{[3-(4-{[(3S,4R)-3-fluoro-1-methylpiperidin-4-yl]amino}-1-(2,2,2-trifluoroethyl)-1H-indol-2-yl)-1,2,4-oxadiazol-5-yl]methyl}-1H-pyrrole-3-carboxamide] |
| * (* = 0 μM ≤ SC150 < 0.1 μM) | – | CN1CC[C@@H](Nc2cccc3c2cc(-c2noc(CNC(=O)c4ccsc4)n2)n3CC(F)(F)F)[C@@H](F)C1 (racemic) [Compound 176B, (+/−)-N-{[3-(4-{[(3R,4S)-3-fluoro-1-methylpiperidin-4-yl]amino}-1-(2,2,2-trifluoroethyl)-1H-indol-2-yl)-1,2,4-oxadiazol-5-yl]methyl}thiophene-3-carboxamide] |
| * (* = 0 μM ≤ SC150 < 0.1 μM) | – | CC(C)n1ccc(C(=O)NCc2nc(-c3cc4c(N[C@@H]5CCN(C)C[C@@H]5F)cccc4n3CC(F)(F)F)no2)c1 [Compound 199B, N-{[3-(4-{[(3S,4R)-3-fluoro-1-methylpiperidin-4-yl]amino}-1-(2,2,2-trifluoroethyl)-1H-indol-2-yl)-1,2,4-oxadiazol-5-yl]methyl}-1-(propan-2-yl)-1H-pyrrole-3-carboxamide] |
| * (* = 0 μM ≤ SC150 < 0.1 μM) | – | CN1CC[C@@H](Nc2cccc3c2cc(-c2noc(CNC(=O)c4ccn(C(C)(C)C)n4)n2)n3CC(F)(F)F)[C@@H](F)C1 [Compound 529B, 1-tert-butyl-N-{[3-(4-{[(3S,4R)-3-fluoro-1-methylpiperidin-4-yl]amino}-1-(2,2,2-trifluoroethyl)-1H-indol-2-yl)-1,2,4-oxadiazol-5-yl]methyl}-1H-pyrazole-3-carboxamide] |
| * (* = 0 μM ≤ SC150 < 0.1 μM) | – | CN1CC[C@@H](Nc2cccc3c2cc(-c2noc(CNC(=O)c4csc(N(C)C(C)(C)C)n4)n2)n3CC(F)(F)F)[C@@H](F)C1 [Compound 528B, 2-[tert-butyl(methyl)amino]-N-{[3-(4-{[(3S,4R)-3-fluoro-1-methylpiperidin-4-yl]amino}-1-(2,2,2-trifluoroethyl)-1H-indol-2-yl)-1,2,4-oxadiazol-5-yl]methyl}-1,3-thiazole-4-carboxamide] |
| * (* = 0 μM ≤ SC150 < 0.1 μM) | – | COCC(C)(C)n1cc(C(=O)NCc2nc(-c3cc4c(N[C@H]5CCN(C(C)(C)C)C[C@H]5F)cccc4n3CC(F)(F)F)no2)cn1 [Compound 413B, N-{[3-(4-{[(3R,4S)-1-tert-butyl-3-fluoropiperidin-4-yl]amino}-1-(2,2,2-trifluoroethyl)-1H-indol-2-yl)-1,2,4-oxadiazol-5-yl]methyl}-1-(1-methoxy-2-methylpropan-2-yl)-1H-pyrazole-4-carboxamide] |

The next lines start with the compound.

| SMILES | Y220C SC150 (μM) | SC150 (μM) (concentration to increase DNA binding by […], incubated at either 27° C. or 29° C. for 60 min) |
| --- | --- | --- |
| COCCN(C)c1nc(C(=O)NCc2nc(-c3cc4c(N[C@@H]5CCN(C)C[C@@H]5F)cccc4n3CC(F)(F)F)no2)cs1 [Compound 536B, N-{[3-(4-{1[(3S,4R)-3-fluoro-1-methylpiperidin-4-yl]amino}-1-(2,2,2-trifluoroethyl)-1H-indol-2-yl)-1,2,4-oxadiazol-5-yl]methyl}-2-[(2-methoxyethyl)(methyl)amino]-1,3-thiazole-4-carboxamide] | * (* = 0 μM ≤ SC150 < 0.1 μM) | – |
| CCC1(C(=O)NCc2nnc(-c3cc4c(NC5CCN(C)CC5)cccc4n3CC(F)(F)F)s2)CC1 [Compound 74B, 1-ethyl-N-[(5-{4-[(1-methylpiperidin-4-yl)amino]-1-(2,2,2-trifluoroethyl)-1H-indol-2-yl}-1,3,4-thiadiazol-2-yl)methyl]cyclopropane-1-carboxamide] | ** (** = 0.1 μM ≤ SC150 < 0.5 μM) | – |
| Cc1nc2c(s1)CC(Nc1cccc3c1cc(-c1noc(CNC(=O)c4ccn(C(C)(C)C)c4)n1)n3CC(F)(F)F)CC2 (centres unmarked) [Compound 368B, 1-tert-butyl-N-[(3-{4-[(2-methyl-4,5,6,7-tetrahydro-1,3-benzothiazol-6-yl)amino]-1-(2,2,2-trifluoroethyl)-1H-indol-2-yl}-1,2,4-oxadiazol-5-yl)methyl]-1H-pyrrole-3-carboxamide] | *** (*** = 0.5 μM ≤ SC150 < 1 μM) | – |
| Cc1nn(C(C)C)cc1C(=O)NCc1nc(-c2cc3c(N[C@@H]4CCN(C)C[C@@H]4F)cccc3n2CC(F)(F)F)no1 [Compound 311B, N-{[3-(4-{[(3S,4R)-3-fluoro-1-methylpiperidin-4-yl]amino}-1-(2,2,2-trifluoroethyl)-1H-indol-2-yl)-1,2,4-oxadiazol-5-yl]methyl}-3-methyl-1-(propan-2-yl)-1H-pyrazole-4-carboxamide] | * (* = 0 μM ≤ SC150 < 0.1 μM) | – |
| CN1CC[C@@H](Nc2cccc3c2cc(-c2noc(CNC(=O)c4ccc5[nH]ccc5c4)n2)n3CC(F)(F)F)[C@@H](F)C1 [Compound 258B, N-{[3-(4-{[(3S,4R)-3-fluoro-1-methylpiperidin-4-yl]amino}-1-(2,2,2-trifluoroethyl)-1H-indol-2-yl)-1,2,4-oxadiazol-5-yl]methyl}-1H-indole-5-carboxamide] | * (* = 0 μM ≤ SC150 < 0.1 μM) | – |
| O=S1(=O)CCC(Nc2cccc3c2cc(-c2cccc(Cl)c2)n3CC(F)(F)F)CC1 [Compound 12A, 4-{[2-(3-chlorophenyl)-1-(2,2,2-trifluoroethyl)-1H-indol-4-yl]amino}-1λ^6-thiane-1,1-dione] | – | ++++ (++++ = 10 μM ≤ SC150 < 35 μM) |
| CC(C)(C)n1ccc(C(=O)NCc2nc(-c3cc4c(NC5CCn6ccnc6C5)cccc4n3CC(F)(F)F)no2)c1 (centres unmarked) [Compound 366B, 1-tert-butyl-N-({3-[4-({5H,6H, 7H,8H-imidazo[1,2-a]pyridin-7-yl}amino)-1-(2,2,2-trifluoroethyl)-1H-indol-2-yl]-1,2,4-oxadiazol-5-yl}methyl)-1H-pyrrole-3-carboxamide] | * (* = 0 μM ≤ SC150 < 0.1 μM) | – |
| CN1CC[C@@H](Nc2cccc3c2cc(-c2ccc(CNC(=O)C4CC4)s2)n3CC(F)(F)F)[C@@H](F)C1 (racemic) [Compound 103B, (+/−)-N-{[5-(4-{[(3R,4S)-3-fluoro-1-methylpiperidin-4-yl]amino}-1-(2,2,2-trifluoroethyl)-1H-indol-2-yl)thiophen-2-yl]methyl}cyclopropanecarboxamide] | * (* = 0 μM ≤ SC150 < 0.1 μM) | – |
| COC(C)(C)c1ccc(C(=O)NCc2nc(-c3cc4c(N[C@H]5CCNC[C@H]5F)cccc4n3CC(F)(F)F)no2)s1 [Compound 479B, N-{[3-(4-{[(3R,4S)-3-fluoropiperidin-4-yl]amino}-1-(2,2,2-trifluoroethyl)-1H-indol-2-yl)-1,2,4-oxadiazol-5-yl]methyl}-5-(2-methoxypropan-2-yl)thiophene-2-carboxamide] | * (* = 0 μM ≤ SC150 < 0.1 μM) | – |
| CO[C@H]1C[C@H](n2ccc(C(=O)NCc3nc(-c4cc5c(N[C@@H]6CCN(C)C[C@@H]6F)cccc5n4CC(F)(F)F)no3)c2)C1 [Compound 449B, N-{[3-(4-{[(3S,4R)-3-fluoro-1-methylpiperidin-4-yl]amino}-1-(2,2,2-trifluoroethyl)-1H-indol-2-yl)-1,2,4-oxadiazol-5-yl]methyl}-1-[(1r,3r)-3-methoxycyclobutyl]-1H-pyrrole-3-carboxamide] | * (* = 0 μM ≤ SC150 < 0.1 μM) | – |
| COC(C)(C)c1cc(C(=O)NCc2nc(-c3cc4c(N[C@@H]5CCNC[C@@H]5F)cccc4n3CC(F)(F)F)no2)cs1 [Compound 489B, N-{[3-(4-{[(3S,4R)-3-fluoropiperidin-4-yl]amino}-1-(2,2,2-trifluoroethyl)-1H-indol-2-yl)-1,2,4-oxadiazol-5-yl]methyl}-5-(2-methoxypropan-2-yl)thiophene-3-carboxamide] | * (* = 0 μM ≤ SC150 < 0.1 μM) | – |
| CN1CC[C@@H](Nc2cccc3c2cc(-c2noc(CNC(=O)c4csc(N5CC6CC(C5)O6)n4)n2)n3CC(F)(F)F)[C@@H](F)C1 [Compound 525B] | ** (** = 0.1 μM ≤ SC150 < 0.5 μM) | – |
| CN1CC[C@@H](Nc2cccc3c2cc(-c2noc(CNC(=O)[C@@H]4C[C@H]4c4ccccc4)n2)n3CC(F)(F)F)[C@@H](F)C1 (racemic) [Compound 185B] | * (* = 0 μM ≤ SC150 < 0.1 μM) | – |
| CN1CCC(Nc2cccc3c2cc(-c2nnc(CNC(=O)c4ccn(C)c4)s2)n3CC(F)(F)F)CC1 [Compound 77B, 1-methyl-N-[(5-{4-[(1-methylpiperidin-4-yl)amino]-1-(2,2,2-trifluoroethyl)-1H-indol-2-yl}-1,3,4-thiadiazol-2-yl)methyl]-1H-pyrrole-3-carboxamide] | * (* = 0 μM ≤ SC150 < 0.1 μM) | – |
| CN1CCC(Nc2cccc3c2cc(-c2nc(CNC(=O)c4ccn(C)n4)no2)n3CC(F)(F)F)CC1 [Compound 141B, 1-methyl-N-[(5-{4-[(1-methylpiperidin-4-yl)amino]-1-(2,2,2-trifluoroethyl)-1H-indol-2-yl}-1,2,4-oxadiazol-3-yl)methyl]-1H-pyrazole-3-carboxamide] | ** (** = 0.1 μM ≤ SC150 < 0.5 μM) | – |
| COc1cc(S(C)(=O)=O)ccc1NCc1nc(-c2cc3c(N[C@@H]4CCN(C)C[C@@H]4F)cccc3n2CC(F)(F)F)no1 (racemic) [Compound 183B, (+/−)-N-[(3R,4S)-3-fluoro-1-methylpiperidin-4-yl]-2-(5-{[(4-methanesulfonyl-2-methoxyphenyl)amino]methyl}-1,2,4-oxadiazol-3-yl)-1-(2,2,2-trifluoroethyl)-1H-indol-4-amine] | * (* = 0 μM ≤ SC150 < 0.1 μM) | – |
